These results are taken from patent publication US20040009243A1, “Cancer preventive composition comprising ginsenoside glycosides of red ginseng” (priority 2002, published 2004).

For data set [1], the system named is lung adenoma induced by benzo(a)pyrene. Briefly: 9-weeks medium-term anticarcinogenicity test of ginsenosides (Experiment 1). In kind it is in vivo, NIH(GP) mice. To be noted: for incidence of lung adenoma on the average: BP 0.5 mg plus ginsenoside; for incidence of lung adenoma on the average / Incidence (lung adenoma), treatment alone without BP: sacrifice 9th week; for incidence of lung adenoma on the average / Incidence, number of mice with lung adenoma / Incidence, value in parentheses (percent of mice with lung adenoma) / Multiplicity (Mean ± S.D.): BP line = carcinogen alone; for Incidence, number of mice with lung adenoma / Incidence, value in parentheses (percent of mice with lung adenoma) / Multiplicity (Mean ± S.D.): BP 0.5 mg/head + ginsenoside 80 μg/ml; for Incidence (lung adenoma), treatment alone without BP: red ginseng extract 2 mg/ml, ginsenosides 80 μg/ml in drinking water, 6 weeks; for lung adenoma in groups treated singularly, without BP (in words): treatment alone, 9 weeks. The text has this: 1) Experimental animal: In this experiment newborn non-inbred strain NIH(GP) mice were used. Each experimental animal was in a breeding chamber maintained at constant temperature and humidity and, after weaning, given a solid feed prepared according to the NIH-7 open formula. The experimental animals were allowed to freely take drinking water and diet.
2) Establishment of the test groups: The test groups were a total of 10 groups including the normal control group, the ginsenoside Rg3 treatment group, the ginsenoside Rg5 group, the ginsenoside Rh1 group, the ginsenoside Rh2 group, the BP 0.5 mg group, the BP plus ginsenoside Rg3 group, the BP plus ginsenoside Rg5 group, the BP plus ginsenoside Rh1 group, and the BP plus ginsenoside Rh2 group, wherein 25 to 30 newborn mouse, female and male respectively, were used in each group.
3) Chemical carcinogen: As the chemical carcinogen, benzo(a)pyrene (BP: Sigma Chemical Co.) was used. The given amount of BP was suspended in 1% aqueous gelatin solution and then injected subcutaneously in the subscapular region once in an amount of 0.02 cc (0.5 mg).
4) Administration of respective ginsenosides: Respective ginsenosides, i.e. ginsenoside Rg3, ginsenoside Rg5, ginsenoside Rh1 and ginsenoside Rh2 were suspended in drinking water to 80 μg/ml and daily administered from the 3rd week to 9 th week after birth, i.e. during the period of 6 weeks.
5) Monitoring and sacrifice of experimental animals: The appearance of mice was monitored every time at which the feed and drinking water were changed, beginning from weaning at the 3th week after birth. Mice were weighed at intervals of one week and sacrificed at the 9th week after birth and then subjected to autopsy.
6) Pathological investigation: Immediately after autopsy, lungs were exposed to observe the presence or absence of nodules of lung adenoma, and at the same time, to observe the presence or absence of any lesion in respective main organs by the naked eye. Then lungs were fixed in Tellyesniczky solution and the other main organs were fixed in 10% neutral formalin solution, cut and then examined with a microscope. After fixing of lungs, nodules of long adenoma were counted by the naked eye. Then lungs were cut as in case of other main organs, stained with hematoxylin-eosin and then investigated to find nodules of lung adenoma.
7) Statistical treatment: The comparisons of the calculated lung adenoma incidence in respective test groups were made using the Chi-square test and the comparisons of multiplicity were made using Student's t test to obtain P-value.

The subject of data set [2] is mouse pulmonary adenoma induced by benzo(a)pyrene. The conditions noted are these: BP + ginseng of given age, BP line = carcinogen alone, cited from earlier work.
Another data set deals with male ICR mice. Briefly: acute toxicity test (Experiment 2). In kind it is in vivo. The conditions noted are these: for autopsy examination, macroscopic (in words) / dead animals (in words): 1000 mg/kg oral, once; for autopsy examination, macroscopic (in words): 14th day after administration; for dead animals (in words): observed for 14 days; for acute toxicity / toxicity (in words): mice, oral route, 1000 mg/kg. Here is the method:
20 male ICR mice weighing 26-30 grams were used in each test group to conduct the acute toxicity test of ginsenosides Rg3, Rg5 and Rh2. Specifically, each of ginsenosides Rg3, Rg5 and Rh2 was prepared in 0.5% Tween 80 as the solvent to the concentration of 100 mg/ml and then orally administered to mice once in an amount of 0.2 ml per 20 grams of body weight. The control group was given only 0.5% Tween 80 solvent via oral route. […] Further, on 14th day after administration the animals were sacrificed and then autopsied to examine macroscopically the main organs.

Entries after “also recorded” stand apart in the source; their conditions may differ. Read-outs that look alike come from different tables or passages of the source.

In the case of `c1ccc2c(c1)cc1ccc3cccc4ccc2c1c34` [Benzo(a)pyrene (BP), benzo(a)pyrene, reference compound], in data set [1], the “incidence of lung adenoma on the average” value is on record as 60%. The “Incidence, number of mice with lung adenoma” value (from here on “Incidence, number of mice”) in data set [1] (Sex F) worked out at 16; in data set [1] (Sex M + F), 30; in data set [1] (Sex M), 14. The “Incidence, value in parentheses (percent of mice with lung adenoma)” value in data set [1] (Sex F) is 64.0; in data set [1] (Sex M + F), 60.0; in data set [1] (Sex M), 56.0. The “Multiplicity (Mean ± S.D.)” value in data set [1] (Sex F) is given as 1.80 ± 2.12; in data set [1] (Sex M + F), 1.50 ± 1.82; in data set [1] (Sex M), 1.20 ± 1.44. Besides, the “Incidence of lung adenoma” value in data set [2] (Fresh ginseng Extract series) is 63.9; in data set [2] (Fresh ginseng Powder series), 41.3; in data set [2] (Red ginseng Extract series), 47.5; in data set [2] (Red ginseng powder series), 48.6; in data set [2] (White ginseng Powder series) it was 45.0; in data set [2] (White ginseng extract series), 41.3.
For `CC(C)=CCC[C@](C)(O)[C@H]1CC[C@]2(C)[C@@H]1[C@H](O)C[C@@H]1[C@@]3(C)CC[C@H](O[C@@H]4O[C@H](CO)[C@@H](O)[C@H](O)[C@H]4O[C@@H]4O[C@H](CO)[C@@H](O)[C@H](O)[C@H]4O)C(C)(C)[C@@H]3CC[C@]12C` [Ginsenoside Rg3, ginsenoside Rg3], in the data set with male ICR mice, the “autopsy examination, macroscopic (in words)” value (“autopsy examination” below) was “no special pathological finding”; the “dead animals (in words)” value is recorded as “no dead animal was observed”; the “acute toxicity / toxicity (in words)” value was “did not exhibit any acute toxicity; also recorded: have no toxicity”. In data set [1], the “incidence of lung adenoma on the average” value is 46.7% and the “lung adenoma in groups treated singularly, without BP (in words)” value (shortened to “lung adenoma … without BP (in words)”) is reported as “did never occur lung adenoma”. In data set [1] (Sex F), the “Incidence, number of mice” value is recorded as 15; the “Incidence, value in parentheses (percent of mice with lung adenoma)” value is listed as 50.0; the “Multiplicity (Mean ± S.D.)” value worked out at 1.03 ± 1.27; the “Incidence (lung adenoma), treatment alone without BP” value is given as 0. Moreover, in data set [1] (Sex M + F), the “Incidence, number of mice” value worked out at 28; the “Incidence, value in parentheses (percent of mice with lung adenoma)” value is given as 46.7; the “Multiplicity (Mean ± S.D.)” value was 0.85 ± 1.13; the “Incidence (lung adenoma), treatment alone without BP” value is 0. In data set [1] (Sex M), the “Incidence, number of mice” value came to 13; the “Incidence, value in parentheses (percent of mice with lung adenoma)” value was 43.3; the “Multiplicity (Mean ± S.D.)” value was 0.67 ± 0.96; the “Incidence (lung adenoma), treatment alone without BP” value was found to be 0.
With `CC(C)=CC/C=C(\C)[C@H]1CC[C@]2(C)[C@@H]1[C@H](O)C[C@@H]1[C@@]3(C)CC[C@H](O[C@@H]4O[C@H](CO)[C@@H](O)[C@H](O)[C@H]4O[C@@H]4O[C@H](CO)[C@@H](O)[C@H](O)[C@H]4O)C(C)(C)[C@@H]3CC[C@]12C` [Ginsenoside Rg5, ginsenoside Rg5], in the data set on male ICR mice, the “autopsy examination” value was “no special pathological finding”; the “dead animals (in words)” value is recorded as “no dead animal was observed”; the “acute toxicity / toxicity (in words)” value is “did not exhibit any acute toxicity; also recorded: have no toxicity”. For the same compound, in data set [1], the “incidence of lung adenoma on the average” value was determined as 45.0% and the “lung adenoma … without BP (in words)” value is given as “did never occur lung adenoma”. Further, in data set [1] (Sex F), the “Incidence, number of mice” value is given as 14; the “Incidence, value in parentheses (percent of mice with lung adenoma)” value came to 46.7; the “Multiplicity (Mean ± S.D.)” value stood at 1.33 ± 2.89; the “Incidence (lung adenoma), treatment alone without BP” value was 0. In addition, in data set [1] (Sex M + F), the “Incidence, number of mice” value is 27; the “Incidence, value in parentheses (percent of mice with lung adenoma)” value is reported as 45.0; the “Multiplicity (Mean ± S.D.)” value is given as 1.08 ± 2.21; the “Incidence (lung adenoma), treatment alone without BP” value was found to be 0. In data set [1] (Sex M), the “Incidence, number of mice” value amounted to 13; the “Incidence, value in parentheses (percent of mice with lung adenoma)” value is 43.3; the “Multiplicity (Mean ± S.D.)” value was 0.83 ± 1.21; the “Incidence (lung adenoma), treatment alone without BP” value came to 0.
With `CC(C)=CCC[C@](C)(O)[C@H]1CC[C@]2(C)[C@@H]1[C@H](O)C[C@@H]1[C@@]3(C)CC[C@H](O)C(C)(C)[C@@H]3[C@@H](O[C@@H]3O[C@H](CO)[C@@H](O)[C@H](O)[C@H]3O)C[C@]12C` [Ginsenoside Rh1, ginsenoside Rh1, reference compound], in data set [1] (Sex F), the “Incidence, number of mice” value is 16; the “Incidence, value in parentheses (percent of mice with lung adenoma)” value is 53.3; the “Multiplicity (Mean ± S.D.)” value is 1.49 ± 1.86. Further, in data set [1] (Sex M + F), the “Incidence, number of mice” value was determined as 31; the “Incidence, value in parentheses (percent of mice with lung adenoma)” value came out at 51.7; the “Multiplicity (Mean ± S.D.)” value stood at 1.03 ± 1.27. In data set [1] (Sex M), the “Incidence, number of mice” value is recorded as 15; the “Incidence, value in parentheses (percent of mice with lung adenoma)” value is 50.0; the “Multiplicity (Mean ± S.D.)” value turned out to be 1.20 ± 1.54. The “lung adenoma … without BP (in words)” value in data set [1] was “did never occur lung adenoma”.
As for `CC(C)=CCC[C@](C)(O)[C@H]1CC[C@]2(C)[C@@H]1[C@H](O)C[C@@H]1[C@@]3(C)CC[C@H](O[C@@H]4O[C@H](CO)[C@@H](O)[C@H](O)[C@H]4O)C(C)(C)[C@@H]3CC[C@]12C` [Ginsenoside Rh2, ginsenoside Rh2], in the data set with male ICR mice, the “autopsy examination” value is listed as “no special pathological finding”; the “dead animals (in words)” value is reported as “no dead animal was observed”; the “acute toxicity / toxicity (in words)” value is on record as “did not exhibit any acute toxicity; also recorded: have no toxicity”. For the same compound, in data set [1], the “incidence of lung adenoma on the average” value stood at 48.3% and the “lung adenoma … without BP (in words)” value is recorded as “did never occur lung adenoma”. In data set [1] (Sex F), the “Incidence, number of mice” value was found to be 16; the “Incidence, value in parentheses (percent of mice with lung adenoma)” value is on record as 53.3; the “Multiplicity (Mean ± S.D.)” value was found to be 1.53 ± 1.93; the “Incidence (lung adenoma), treatment alone without BP” value stood at 0. For the same compound, in data set [1] (Sex M + F), the “Incidence, number of mice” value amounted to 29; the “Incidence, value in parentheses (percent of mice with lung adenoma)” value was found to be 48.3; the “Multiplicity (Mean ± S.D.)” value was 1.15 ± 1.61; the “Incidence (lung adenoma), treatment alone without BP” value is recorded as 0. Besides, in data set [1] (Sex M), the “Incidence, number of mice” value was determined as 13; the “Incidence, value in parentheses (percent of mice with lung adenoma)” value was determined as 43.3; the “Multiplicity (Mean ± S.D.)” value is on record as 0.77 ± 1.14; the “Incidence (lung adenoma), treatment alone without BP” value is listed as 0.
